Holding throughout (test): NCI anticancer screen, dose series, 48 h
For test [1], the system named is BT-549 breast.
The test system of test [2] is SK-MEL-2 melanoma.
The subject of test [3] is SF-268 CNS.
The test system of test [4] is OVCAR-3 ovarian.
Test [5] concerns SW-620 colon.
Test [6] concerns OVCAR-5 ovarian.
In test [7] the test system is T-47D breast.
Test [8] deals with OVCAR-4 ovarian.
For test [9], the system named is UACC-62 melanoma.
The subject of test [10] is 786-0 renal.

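In this assay, cells in 96-well plates receive the compound at five concentrations for 48 hours. Endpoints are linearly interpolated between the surrounding concentrations. GI50 marks 50% less growth. TGI: total growth inhibition.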 Bounds are passed on as bounds.

For the compound `CC(=O)OC(C)c1cc2c(s1)C(=O)c1sccc1C2=O` (stereo unspecified), the TGI is 1.68 µM in test [1]; 2.41 µM in [2]; 4.09 µM in test [3]; 8.71 µM in test [4]; over 100 µM in [5]; 3.3 µM in test [6]. Further, the TGI in [7] came to 6.2 µM; in test [8], 3.5 µM; in test [9] it was 3.05 µM. In addition, the GI50 in test [9] is 1.38 µM.

On to `COc1ccc(/C(=N/O)c2ccccc2-c2nc3ccccc3c(=O)n2-c2ccc(S(=O)(=O)Nc3ncccn3)cc2)cc1C`, for which the TGI in [1] was 31.3 µM; in test [3], over 31.6 µM; in test [4], 25.9 µM; in test [5] it was over 31.6 µM; in [6], over 31.6 µM; in test [7], 25.2 µM. For the same compound, the TGI in test [8] is over 31.6 µM; in [9] it was 19.9 µM.

Regarding `COc1ccc(N2C(=O)c3c4c(c5c([nH]c6ncccc65)c3C2=O)CCC(C(C)(C)C)C4)cc1` (stereo unspecified), the TGI in [1], in [3], in [4], in [10], in test [5] and in [7] was over 100 µM each time. In addition, the TGI in test [8] and in test [9] was over 100 µM each time.

Consider `Nc1c2ccccc2nc2c1ccc1ncccc12`, for which the TGI was over 100 µM in test [1]; 42.1 µM in test [2]; over 100 µM in test [4]; over 100 µM in [10]; over 100 µM in test [5]; over 100 µM in test [6]. Besides, the results for the TGI in test [7], in test [8] and in [9] were over 100 µM, 63 µM and 37.8 µM, respectively.

For `c1ccc2c(c1)[nH]c1nc3cc(-c4ccc5nc6c(nc5c4)[nH]c4ccccc46)ccc3nc12`, the TGI in test [1], in test [2], in [3], in test [10], in test [5] and in [6] was over 100 µM throughout. The TGI in test [7], in test [8] and in test [9] was over 100 µM throughout.

`CCOP(=O)(OCC)C1C(CO)OC(n2ccc(=O)[nH]c2=O)C1O` (stereo unspecified): the TGI in [1], in test [2], in test [3], in test [4], in test [10] and in test [5] was over 100 µM throughout. The TGI in test [7], in test [8] and in test [9] was over 100 µM throughout.

As for `N#Cc1nc(-c2cc([N+](=O)[O-])cc([N+](=O)[O-])c2)oc1N`, the TGI in test [1], in test [3], in test [10], in [5], in test [7] and in test [8] was over 10 µM in each case. The compound also registered a TGI in test [9] of over 10 µM.

In the case of `CN(C)NC(=S)Nc1ccccc1Br`, the TGI in test [1], in test [2], in [4], in [10], in test [5] and in [6] was over 100 µM throughout. Also, the TGI in [7], in test [8] and in [9] was over 100 µM in each case.

For the compound `COC(=O)c1c(C)cccc1/C=C1/Cc2c(C)cccc2C1=O`, the TGI in [1], in [3], in [4], in test [10], in [5] and in test [6] was over 100 µM each time. The TGI in test [7], in test [8] and in [9] was over 100 µM throughout.

As for `CC(=O)N/N=C1/NN(C(C)=O)C2(S1)C(=O)Nc1ccc(Br)cc12` (stereo unspecified), the TGI in [1], in [2], in test [3], in test [4], in test [10] and in test [6] was over 100 µM throughout. For the same compound, the TGI in test [7], in test [8] and in test [9] was over 100 µM each time.

As for `CCCCN1CCN(c2ccc3nc(-c4ccc5nc(-c6ccc(C(F)(F)F)cc6)[nH]c5c4)[nH]c3c2)CC1`, the GI50 in [1] was 1.61 µM; in test [2], 1.76 µM; in [3] it was 1.74 µM; in [4] it was 0.614 µM; in [5], 0.297 µM; in test [6] it was 1.87 µM. Further, the results for the GI50 in test [7], in test [8] and in test [9] were 1.38 µM, 0.859 µM and 1.58 µM, respectively. Also, the TGI was determined as 3.1 µM in [1]; 3.31 µM in test [2]; 3.43 µM in test [3]; 1.12 µM in test [4]; 0.841 µM in test [5]; 3.32 µM in test [6]. Moreover, the TGI in test [7] amounted to 3.19 µM; in test [8], 2.39 µM; in test [9], 3.11 µM.

As for `Cc1nn(C(=O)Cc2ccccc2)c2c1C(c1ccccc1O)SC(N)=N2` (stereo unspecified), the TGI in [1], in test [3], in test [10], in [5], in test [7] and in [9] was over 100 µM in each case.

For the compound `Cc1cc2c(C)cc(=O)[nH]c2cc1N`, the TGI in test [1], in test [4], in [10], in [5], in [6] and in test [7] was over 100 µM throughout. Besides, the TGI in [8] and in [9] was over 100 µM in each case.

For the compound `Nc1nn2c(C(Br)Br)cc(C(Br)Br)nc2c1[N+](=O)[O-]`, the TGI in [1] amounted to 2.09 µM; in test [3], 4.8 µM; in [10], 1.08 µM; in test [5], 0.77 µM; in [6] it was 3.12 µM; in test [7], 5.27 µM. Moreover, the TGI in test [9] came to 4.06 µM.

These data come from PubChem BioAssay (NCI).
